Data reported in patent US20110207817A1, “ANTI-INFLAMMATORY COMPOUNDS AND COMPOSITIONS THEREOF” (priority 2008, published 2011).

Key:
Type in all cases: cell-based
[1] = test system: Mouse macrophage Raw 264.7 cells; assay: LPS-induced PGE2 release from Raw 264.7 cells (Example 4)
Protocol: (§1) In the presence and absence of sodium propyl paraben, mouse macrophage cells (RAW 264.7) and human gingival cells (HGF) were stimulated with LPS and the levels of inflammatory mediators Prostaglandin E2 (PGE2) and interleukin 8 (IL-8) in the cell supernatants were measured. While LPS administration increased the secretion of inflammatory mediators, sodium propyl paraben decreased LPS induced secretion of these mediators in a dose dependent manner. Sodium propyl paraben was identified as a novel anti-inflammatory agent, inhibiting the secretion of inflammatory mediators from both leukocytes and gingival fibroblasts. Mouse macrophage Raw 264.7 cells and human gingival fibroblast HGF cells were purchased from ATCC (Manassas, Va.) and ScienCell LLC (Carlsbad, Calif.), respectively. All of the culturing reagents were purchased from Mediatech (Manassas, Va.) unless otherwise stated. Both cell lines were cultured in a humidified incubator at 37° C. and in the presence of 5% CO2 and maintained in Dulbecco's Modified Eagle Medium (DMEM, 4.5 g/l glucose) supplemented with 10% Fetal Bovine Serum (FBS) and 1% penicillin-streptomycin. […] The level of PGE2 or IL-8 was analyzed using commercially available enzyme-linked immunosorbent assay (ELISA) kits (R&D Systems, Minneapolis, Minn.). […]

[2] = test system: human gingival fibroblast HGF cells; assay: LPS-induced PGE2 release from HGF cells (Example 4); conditions: 100 μg/ml, without LPS
Protocol: as §1

[3] = test system: human gingival fibroblast HGF cells; assay: LPS-mediated IL-8 production (Example 4)
Protocol: as §1

[4] = test system: Human Gingival Fibroblast (HGF) cells; assay: PGE2 release from LPS-irritated Human Gingival Fibroblast cells, neat solution (Example 1); conditions: for PGE2 Release (with LPS): 2 μg/mL P. gingivalis LPS, negative control without LPS = 100%
Protocol: For Examples 1 through 3, three sets of cell culture experiments were conducted in order to establish the anti-inflammatory efficacy of sodium propyl paraben. In all cases, in-vitro testing was conducted using Human Gingival Fibroblast cells suspended in low serum media. To irritate the cells, 2 μg/mL lipopolysaccharide (LPS) derived from P. gingivalis was added to the media. Sodium propyl paraben was added either directly to the media or incorporated into an adhesive matrix which was then suspended into the media by means of a permeable plastic insert. Cellular response was quantified by the presence of Prostaglandin E2 (PGE2), a cytokine associated with cellular irritation and inflammation, following an incubation period. Data is reported below after normalizing the level of PGE2 release of a negative control to “100%”. In-vitro testing was conducted using Human Gingival Fibroblast (HGF) cells that had been purchased from ScienCell (Carlsbad, Calif.). Prior to use, the cells had been grown in a 37° C. incubator with 5% CO2 and 95% humidity. Cells were maintained in high glucose Dulbecco's Modified Eagle's Medium (Mediatech, Manassas, Va.) with a 10% addition of heat inactivated Fetal Bovine Serum (Mediatech) and a 1% addition of Penicillin-Streptomycin 100× solution (Mediatech). Cells that had been previously frozen for long-term storage were allowed to recover/expand for at least one passage before being utilized for experimentation. To plate the cells, the maintenance medium was aspirated and the cells were washed with Hank's Balanced Salt Solution (Mediatech). Subsequently, the HBSS was aspirated and a trypsin-EDTA solution (Mediatech) was added to ensure that the cells released from the tissue culture plastic. Maintenance medium was reapplied and fractions of the solution containing the cells were transferred to a multi-well plate. After transfer, incubation was conducted to expand the cell population to 80% confluency. When the desired level of confluency was achieved, the maintenance medium was aspirated and one of several test solutions was added. For a negative control, a low serum medium was prepared that contained 0.5% of Fetal Bovine Serum (Mediatech) and 581.08 mg/L of L-gluatmine powder (Sigma-Aldrich, Milwaukee, Wis.) in DMEM High Glucose Media without Phenol Red and L-Glutamine (VWR Scientific, West Chester, Pa.). Low serum media were also prepared with the addition of 1, 10, or, 100 μg/mL of sodium propyl paraben (Sigma-Aldrich). […] An ELISA kit from R&D Systems (Minneapolis, Minn.) was used to quantify the release of PGE2 from the cells. […] The quantity of PGE2 reported by the assay was normalized by the percentage of viable cells or total protein. […]

| SMILES | Induction of PGE2 by compound alone ([1]; 100 μg/ml, without LPS) | Induction of PGE2 by compound alone [2] | Induction of IL-8 by compound alone ([3]; 100 μg/ml, without LPS, either cell model) | PGE2 Release (with LPS) ([4]; 1 μg/mL in low serum media) [%] | PGE2 Release (with LPS) ([4]; 10 μg/mL in low serum media) [%] | PGE2 Release (with LPS) ([4]; 100 μg/mL in low serum media) [%] | PGE2 Release (without LPS) ([4]; 100 μg/mL in low serum media, no LPS, negative control = 100%) [%] | LPS-elevated release of PGE2 ([1]; 1, 10 and 100 μg/ml, PG-LPS 2 μg/ml, FIG. 1A) | LPS mediated IL-8 production ([3]; 1, 10 or 100 μg/ml, PG-LPS 2 μg/ml, FIG. 1C) |
| --- | --- | --- | --- | --- | --- | --- | --- | --- | --- |
| CCCOC(=O)c1ccc(O)cc1 [propyl paraben, propyl 4-hydroxybenzoate] | not observed | not observed | not observed | – | – | – | – | – | – |
| CCCOC(=O)c1ccc(O)cc1.[Na] [Sodium Propyl Paraben, propyl 4-hydroxybenzoate, sodium salt] | – | – | – | 124 ± 52 | 103 ± 23 | 84 ± 62 | 62 ± 37 | reduced to basal level | reduced LPS mediated IL-8 production in a dose dependent manner |
